In experiment [1] the test system is fertilized Ross 708 chicken eggs. Nature of the experiment: Percent of fertile eggs hatched at end of 21 days of incubation under controlled CO2. It is filed as in vivo. The method, then: (§1) 900 fertilized eggs from a commonly used commercial chicken strain, Ross 708, that were less than 1 week old since being laid, and laid in the same laying facility by layers (chickens) of the same age, were split equally into three batches of 300 each. One batch, referred to as control batch, was incubated for 18 days in an atmosphere in which no additional CO2 was injected into this atmosphere from any source outside the egg. For this batch, the CO2 concentration inside the incubator varied between the CO2 concentration of the ambient atmosphere (i.e. about 409 ppm) and as high as 1,500 ppm (resulting from CO2 generation by the eggs themselves). The second batch, referred to as 4,000 ppm test CO2 batch or 0.4% CO2 test batch, was incubated for 18 days wherein the CO2 concentration in the incubator from the start of the first day through the end of the eighteenth day was maintained at 4,000 ppm (i.e. 0.4% CO2) by occasional injections of CO2 as necessary. The third batch, referred to as 10,000 ppm test CO2 batch or 1% CO2 test batch, was incubated for 18 days according to Regimen 1 described herein, wherein the CO2 concentration in the incubator from the start of the first day through the end of the eighteenth day was maintained at 10,000 ppm (i.e. 1% CO2) by occasional injections of CO2 as necessary. All three batches were incubated at approximately 100° F. and between 30% and 70% relative humidity. At the end of the eighteenth day of incubation, all three batches of eggs were transferred to hatcher equipment, where the eggs hatched over the next 3 days. No external CO2 was injected into the hatcher from any source outside the eggs for this period of 3 days. Thus, the only difference between the conditions under which the three batches were incubated was that in the control batch no additional CO2 was injected, whereas for the other two batches additional, external CO2 was injected to subject the eggs to CO2 concentrations of 4,000 ppm and 10,000 ppm respectively. During the incubation period the oxygen concentration in the control incubator was always above 20%, whereas in the 4,000 ppm and 10,000 ppm CO2 controlled incubators, the oxygen level was typically above 19%.
(§2) 600 fertilized eggs from a commonly used commercial chicken strain, Ross 708, that were less than 1 week old since being laid, and laid in the same laying facility by layers (chickens) of the same age, were split equally into batches of 300 each. One batch, referred to as control batch, was incubated for 18 days in an atmosphere in which no additional CO2 was injected into this atmosphere from any source outside the egg. […]

Experiment [2] is described as follows: Average bird weight at hatch and at 28 days after CO2 incubation. The format is in vivo, chicken. The method, then: as §1
(§3) Once the chicks hatched, approximately 150 of the male chicks from each batch were taken to grow cages and they began to be fed water and feed. From this point onwards, there was no difference in the treatment of the birds. 28 days after hatching the chickens from each batch were weighed and then stunned. Then the birds were measured for Woody Breast scores by manual palpitation by a trained panel of experts under single-blinded conditions. Each breast was given a score of either 0, 1, 2 or 3. Score 0 means no WB was detected. Score 3 meant very high levels of WB detected and scores 1 and 2 meant intermediate levels of WB were detected.
as §2, with “egg. For this batch, the CO2 concentration inside the incubator varied between ambient atmospheric (i.e. about 409 ppm) and as high as 1,500 ppm (resulting from CO2 generation by the egg).” for “egg.”

Experiment [3] has as its system Ross 708 chickens (Woody Breast). Nature of the experiment: Woody Breast scores by manual palpation in chickens hatched from eggs incubated under controlled CO2. The format is in vivo, chicken. As for the experimental part:
as §1, §3
as §2, with “egg. For this batch, the CO2 concentration inside the incubator varied between ambient atmospheric (i.e. about 409 ppm) and as high as 1,500 ppm (resulting from CO2 generation by the egg).” for “egg.”

For a further experiment, the system named is Ross 708 chickens. Nature of the experiment: Livability: percentage of hatched birds surviving to 28 days after CO2 incubation. The format is in vivo, chicken. To be noted: for percentage of birds that survived compared to control: 28 days. As for the experimental part: as §1, with “No external CO2 was injected into the hatcher from any source outside the eggs for this period of 3 days. Thus, the only difference between the conditions under which the three batches were incubated was that in the control batch no additional CO2 was injected, whereas for the other two batches additional, external CO2 was injected to subject the eggs to CO2 concentrations of 4,000 ppm and 10,000 ppm respectively. During the incubation period the oxygen concentration in the control incubator was always above 20%, whereas in the 4,000 ppm and 10,000 ppm CO2 controlled incubators, the oxygen level was typically above 19%.” left out
Once the chicks hatched, approximately 150 of the male chicks from each batch were taken to grow cages and they began to be fed water and feed. […] Then the birds were measured for Woody Breast scores by manual palpitation by a trained panel of experts under single-blinded conditions. […] Score 0 means no WB was detected. Score 3 meant very high levels of WB detected and scores 1 and 2 meant intermediate levels of WB were detected. […]

[4] abbreviates: Regimen 1, constant 1% CO2 for 18 days.

Molecules are shown by their SMILES.

Regarding `O=C=O` [CO2, carbon dioxide], the “percent of fertile eggs that hatched at the end of 21 days of incubation” value in experiment [1] (Regimen 1, constant 10,000 ppm (1%) CO2 for 18 days, control 88.1%) worked out at 93.5%; in experiment [1] (Regimen 2, 1% CO2 ramp up, control 91%), 94.1%; in experiment [1] (Regimen 3, 0.75% CO2 on-off, control 88.7%), 96%; in experiment [1] (constant 4,000 ppm (0.4%) CO2 for 18 days, control 88.1%), 95.6%. Besides, the “average final weight at 28 days, higher than control by” value in experiment [2] (setting [4]) is “approximately 5%”. In experiment [2] (setting [4]), the “increase of average weight just after hatch vs control” value is “approximately 5%”. The “average weight at hatch, lower than control by” value in experiment [2] (Regimen 2, 1% CO2 ramp up) is recorded as “approximately 6.5%”; in experiment [2] (Regimen 3, 0.75% CO2 on-off), “approximately 1.5%”. The “weight at 28 days compared to control birds” value in experiment [2] (Regimen 2, 1% CO2 ramp up) was “slightly heavier”. Further, the “weight at 28 days, heavier than control birds by” value in experiment [2] (Regimen 3, 0.75% CO2 on-off) stood at 11%. The “% of birds scoring 1 (Woody Breast score)” value turned out to be 15% in experiment [3] (Regimen 1, constant 10,000 ppm (1%) CO2 for 18 days, 28 days after hatching, control 24%); 8% in experiment [3] (Regimen 2, 1% CO2 ramp up, 28 days after hatching, control 13%); 17% in experiment [3] (Regimen 3, 0.75% CO2 on-off, 28 days after hatching, control 23%). Also, the “incidence of WB compared to control birds” value is recorded as “significantly reduced” in experiment [3] (Regimen 1, constant 10,000 ppm (1%) CO2 in incubator for 18 days, scored 28 days after hatching); “significantly reduced” in experiment [3] (Regimen 2, CO2 ramp up in equal daily steps to 10,000 ppm (1%) on day 18, 28 days after hatching); “significantly reduced” in experiment [3] (Regimen 3, 7,500 ppm (0.75%) CO2 on-off on alternate 24 h periods till day 18, 28 days after hatching). Also, the “% of birds scoring 2 (Woody Breast score)” value came out at 1% in experiment [3] (Regimen 3, 0.75% CO2 on-off, 28 days after hatching, control 5%) and 9% in experiment [3] (constant 4,000 ppm (0.4%) CO2 for 18 days, 28 days after hatching, control 1%). Also, the “% of birds scoring 0 (Woody Breast score)” value in experiment [3] (Regimen 3, 0.75% CO2 on-off, 28 days after hatching, control 73%) came out at 82%. For the same molecule, the “WB scores compared to control” value in experiment [3] (constant 4,000 ppm (0.4%) CO2 for 18 days, 28 days after hatching) is recorded as “higher”. For the same molecule, in the experiment with Ross 708 chickens (setting [4]), the “more hatched birds surviving to end of 28 days compared to control” value is “Approximately 4%”. Besides, the “percentage of birds that survived compared to control” value was “no statistical difference” with Ross 708 chickens (Regimen 2, 1% CO2 ramp up) and “no statistical difference” with Ross 708 chickens (Regimen 3, 0.75% CO2 on-off).

Values taken from US20240189344A1, “METHODS USING CARBON DIOXIDE AND OXYGEN TO IMPROVE CHARACTERISTICS OF POULTRY” (priority 2022, published 2024).
